Reference: patent US20060172996A1, “Method of preventing relapse in the abstinent substance dependent individual” (priority 2005, published 2006)

System: otherwise abstinent person
Assay: Human use of Flumazenil during a period of urges for a substance of abuse
Type: in vivo
Details: placed into the blood stream as quickly as possible during a period of urges
Description: While an IV might accomplish the above noted task, it is not realistic for a person, after having undergone detoxification, to have repeated IV therapies daily, to prevent a relapse so as not become substance abuse dependent again. Such a person would have to go to a treatment location where an IV can be administered.

## CCOC(=O)c1ncn2c1CN(C)C(=O)c1cc(F)ccc1-2 [Flumazenil]
  Urge for a substance of abuse such as alcohol: the urge will disappear
